Source: US12097172B2, “Prevention and treatment of diabetic nephropathy” (THE CHILDREN'S MEDICAL CENTER CORPORATION, priority 2016, dated 2024)
Where a name gives a salt, the structure may show the parent alone.

Experiments:
CXCR1 and CXCR2 = conditions: mice; cited from earlier work
Human podocyte cells = assay: IL8 challenge of human podocytes in vitro (stress fibers, cortical actin, cell blebbing, synaptopodin); assay type: cell-based
Protocol: Human podocyte cells bearing a transgene for the thermosensitive (ts58A) variant of the SV40 T antigen, which make them responsive to interferon-γ for proliferation, were cultured and allowed to grow to 80% confluence at 33° C. (designated as day 0). Cells were then thermoshifted to 37° C., causing inactivation of the SV40 T antigen and cessation of cell replication. Podocytes were cultured at different glucose concentrations (normal glucose: 5 mM [NG]; high glucose: 30 mM [HG]) for 5 days. Mannitol was used as an osmotic control for high glucose (mannitol 20 mM+glucose 10 mM) (FIGS. 10A and 10B).
Podocytes were grown on round glass coverslips (VWR, Radnor, PA) were fixed with paraformaldehyde and then permeabilized with 0.3% Triton X-100 (Fisher Scientific, Waltham, MA). Cells were incubated with rhodamine phalloidin (Invitrogen, Carlsbad, CA) to label F-actin networks and visualize stress fibers. Standard fluorescent microscopy was used to assess stress fiber formation. The percentage of cells containing intact actin filaments was assessed by manual cell counting.

db/db mice = assay: KC/CXCR2 axis blockade with Reparixin in db/db diabetic mice (urinary albumin excretion, glycemia, kidney histopathology); assay type: in vivo
From the text: Kidneys from db/db mice at 8, 12 and 25 weeks of age were surgically removed using standard techniques. To perform standard light microscopy, kidneys were fixed in 4% buffered paraformaldehyde (PFA), dehydrated, and paraffin-embedded. AxioVision software 4.3 was used to record the images from Periodic Acid Schiff (PAS) and Trichrome staining. The evaluation of mesangial matrix was electronically performed using a macro built on the AxioVision analysis module (Carl Zeiss Spa, Thornwood, NY). Glomeruli were identified as a region of interest (ROI) and mesangium was highlighted by a color threshold protocol. Binary images were then produced and mesangium was automatically calculated as percentage of the glomerular area. Image acquisition was performed with a Zeiss Axioscope 40FL microscope and AxioCam MRc5 digital video camera (Carl Zeiss SpA). AxioVision software 4.3 was used to record images and AxioVision analysis module to analyze the results (Carl Zeiss SpA). In order to assess the potential role of IL8 blockade in DN progression, 7 weeks old db/db mice were treated with Reparixin 15 mg/kg (ip) twice a day for 18 weeks (up to 25 weeks of age). Briefly, animals were housed in metabolic cages (Nalgene) to separate feces and urine within a light-controlled environment and provided with water ad-libitum. Sample collection tubes passed below the cages and through small holes in the bottom of the light controlled environment. Urine samples from db/db mice were collected through a metabolic cage at week 8, 12, and 25. The BeadLyte Mouse Multi-cytokine Beadmaster Kit (Millipore, Billerica, MA) was used according to the manufacturer's protocol to determine cytokine levels of IL8. Briefly, the supernatant was incubated with beads conjugated to the IL8 alone for a specified amount of time, and then with biotinylated reporters and streptavidin-phycoerythrin solution for 30 min. A Luminex100 reader (Luminex Corporation, Austin, TX) was used to measure the sample cytokine level. All in vitro and in vivo experimental data presented herein in the examples were performed in triplicate, unless indicated otherwise. Proteinuria in db/db mice was performed in 10 untreated and 30 treated animals. Prism statistical software (La Jolla, CA—USA) was used for data analysis. […] For discrete variables, χ^2 test was used. For all tests, p<0.05 was considered significant.

C[C@@H](C(=O)NS(C)(=O)=O)c1ccc(OS(=O)(=O)C(F)(F)F)cc1 [Ladarixin, R(-)-2-[(4′-trifluoromethanesulfonyloxy)phenyl] propionyl-methanesulfonamide sodium salt]
effect on type 1 diabetes (CXCR1 and CXCR2): able to block and revert type 1 diabetes in mice

CC(C)Cc1ccc([C@@H](C)C(=O)NS(C)(=O)=O)cc1 [Reparixin, R(-)-2-[(4-isobutylphenyl)propionyl]-methanesulfonamide]
rescue from IL8 induced damage (loss of stress fibers; increase cortical actin; cell blebbing; loss of synaptopodin expression) (Human podocyte cells; reparixin 100 μM, IL8 100 nM, normal glucose and high glucose): able to rescue podocytes from IL8 induced damage
mesangial expansion (kidney histopathology) (db/db mice; db/db mice at 25 weeks of age, treated vs control mice): reduced mesangial expansion
urinary albumin excretion (UAE) (db/db mice; db/db mice at 25 weeks of age, Reparixin 15 mg/kg ip twice a day for 18 weeks, p<0.01 vs Ctrl): 211.1 ± 24.4 µg/mL
urinary albumin levels over time (db/db mice; db/db mice, weeks 8, 12 and 25, Reparixin 15 mg/kg ip twice a day): remained stable over time
effect on glycemic control (db/db mice; db/db mice, Reparixin 15 mg/kg ip twice a day for 18 weeks): No effect

IL8: Interleukin-8 chemokine, ligand of CXCR1 and CXCR2, used as challenge on podocytes
stress fibers (phalloidin staining) (Human podocyte cells; IL8 100 nM, NG and HG, Ctrl vs. IL8 p<0.05): loss of stress fibers
cell morphology (Human podocyte cells; IL8 treatment, NG and HG): cell blebbing
cortical actin (Human podocyte cells; IL8 treatment, NG and HG): dose dependent increase in cortical actin
